Laboratory results: patent US5674849A, “Anti-viral compositions” (priority 1995, dated 1997)

Test system: HIV-1 strain NL4-3
Test: p24 antigen inhibition in HIV-1 infected HUT-78 cells
Format: cell-based
Conditions: for Expected % inhibition: assuming additive effect; for Observed % inhibition: p24, day 9
Experimental: Control cells were pretreated in 3.5 ml maintenance media under the same conditions.
The tubes were centrifuged at 1200 rpm for 5 minutes to pellet the cells and each pellet was resuspended in 1 ml of stock HIV-1 strain NL4-3 (obtained from AIDS Research and Reference Reagent Program, Rockville, Md.) to obtain an MOI (multiplicity of infection) of about 0.05. The cells were incubated at 37° C. for 1 hour to allow viral adsorption to occur. […] These cells were centrifuged as above, the resulting pellets were resuspended in 1 ml of media and incubated for 1 hour at 37° C.
AZT (Burroughs Wellcome Co.) thawed from sterile stock aliquots was serially diluted in media and dispensed at a volume of 100 μl per well of microtiter plate for the cytotoxicity control wells, compound color control wells and the test wells. Treated and untreated infected and uninfected cells were dispensed at a volume of 100 μl per well. […]
The plates were incubated by 37° C. in 5% CO2.
On the 9th day, 20 μl supernatant was removed from above settled cells in the Test, Virus Control and Cell Control wells. The supernatant was assayed for the presence of p24 antigen using a Coulter Corporation p24 Antigen Test Kit in accordance with the manufacturter's directions.
% Observed Inhibition=[(VC-Test)/(VC)]×100
where VC is the mean p24 of the Virus Control wells; and
Test in the mean p24 of the Test wells.
% Expected Inhibition=X+Y(100-X)
Y is observed % inhibition of AZT.

What does the source list for CC(=O)N[C@H](CCCNC(=N)N)C(=O)N[C@H](CCCNC(=N)N)C(=O)N[C@H](CCCNC(=N)N)C(=O)N[C@H](CCCNC(=N)N)C(=O)N[C@H](CCCNC(=N)N)C(=O)N[C@H](CCCNC(=N)N)C(=O)N[C@H](CCCNC(=N)N)C(=O)N[C@H](CCCNC(=N)N)C(=O)N[C@H](CCCNC(=N)N)C(N)=O [4C, acetyl-[D-Arg]9 -NH2]?
Expected % inhibition (AZT 0 nM, 4C 0.001 μM): -412.7%; Observed % inhibition (AZT 0 nM, 4C 0.001 μM): -412.7%; Expected % inhibition (AZT 0 nM, 4C 0.003 μM): -256.2%; Observed % inhibition (AZT 0 nM, 4C 0.003 μM): -256.2%; Expected % inhibition (AZT 0 nM, 4C 0.01 μM): -22.8%; Observed % inhibition (AZT 0 nM, 4C 0.01 μM): -22.8%; Expected % inhibition (AZT 0 nM, 4C 0.03 μM): 5.9%; Observed % inhibition (AZT 0 nM, 4C 0.03 μM): 5.9%; Expected % inhibition (AZT 0 nM, 4C 0.1 μM): -177.0%; Observed % inhibition (AZT 0 nM, 4C 0.1 μM): -177.0%; Expected % inhibition (AZT 0 nM, 4C 0.3 μM): 25.5%; Observed % inhibition (AZT 0 nM, 4C 0.3 μM): 25.5%; Expected % inhibition (AZT 0 nM, 4C 10 μM): 21.9%; Observed % inhibition (AZT 0 nM, 4C 10 μM): 21.9%; Expected % inhibition (AZT 0 nM, 4C 30 μM): 26.5%; Observed % inhibition (AZT 0 nM, 4C 30 μM): 26.5%

Which results are given for Cc1cn([C@H]2C[C@H](N=[N+]=[N-])[C@@H](CO)O2)c(=O)[nH]c1=O [AZT, azidothymidine, reference compound]?
Expected % inhibition (AZT 10 nM, 4C 0 μM): -406.1%; Observed % inhibition (AZT 10 nM, 4C 0 μM): -406.1%; Expected % inhibition (AZT 30 nM, 4C 0 μM): -437.4%; Observed % inhibition (AZT 30 nM, 4C 0 μM): -437.4%; Expected % inhibition (AZT 100 nM, 4C 0 μM): -14.2%; Observed % inhibition (AZT 100 nM, 4C 0 μM): -14.2%; Expected % inhibition (AZT 300 nM, 4C 0 μM): -9.8%; Observed % inhibition (AZT 300 nM, 4C 0 μM): -9.8%; Expected % inhibition (AZT 1000 nM, 4C 0 μM): -7.7%; Observed % inhibition (AZT 1000 nM, 4C 0 μM): -7.7%
